≈ marks a conversion by molar mass, not a printed value.
Assays:
[1] = Solubility of Compound 1 in pharmaceutical solvents at 25° C.; type: physicochemical
From the text: Compound 1 is a nonpeptide vasopressin receptor antagonist and is insoluble in aqueous solutions throughout the physiological pH range (1.2 to 7.5).

[2] = Precipitation of Compound 1 from cosolvent systems upon addition of water; type: physicochemical; details: cosolvent systems of PEG 400 or 300, Benzyl Alcohol, Ethanol and low amounts of bile salts; water at 30% levels in final mixture
From the text: In additional combinations as cosolvent systems, of PEG 400 or 300, Benzyl Alcohol, Ethanol and low amounts of bile salts (e.g. Sodium Deoxytauro Cholate), Compound 1 precipitated upon an addition of water at 30% levels in the final aqueous-organic mixture.

Q: What does the source list for `Cc1ccc(F)cc1C(=O)Nc1ccc(C(=O)N2Cc3cccn3Cc3ccccc32)c(Cl)c1` [Compound 1, 5-fluoro-2-methyl-N-[4-(5H-pyrrolo[2,1-c][1,4]benzodiazepin-10(11H)-ylcarbonyl)-3-chlorophenyl]benzamide]?
A: solubility ([1]; aqueous buffer, 10 mM Phosphate buffer (pH 7.4), 25° C.): < 0.001 µg/mL; solubility ([1]; aqueous with cosolvent or surfactant or cyclodextrin, Aqueous solution of Poloxamer 188 (10, 20 and 30%), 25° C.): < 0.001 µg/mL; solubility ([1]; aqueous with cosolvent or surfactant or cyclodextrin, Cremophor EL, 25° C.): 5100 µg/mL (≈ 10800 µM); solubility ([1]; aqueous with cosolvent or surfactant or cyclodextrin, Gelucire 48109, 25° C.): 2260 µg/mL (≈ 4770 µM); solubility ([1]; aqueous with cosolvent or surfactant or cyclodextrin, Labrasol, 25° C.): 7500 µg/mL (≈ 15800 µM); solubility ([1]; aqueous with cosolvent or surfactant or cyclodextrin, PEG 300/Alcohol/Water (40:30:30), 25° C.): 280 µg/mL (≈ 591 µM); solubility ([1]; aqueous with cosolvent or surfactant or cyclodextrin, Sodium Lauryl sulfate, 25° C.): 20 µg/mL (≈ 42.2 µM); solubility ([1]; fassgf or other biorelevant, SIF without enzyme, 25° C.): < 0.001 µg/mL; solubility ([1]; oil or lipid, Ethyl oleate, 25° C.): 200 µg/mL (≈ 422 µM); solubility ([1]; oil or lipid, Miglyol 812, 25° C.): 290 µg/mL (≈ 612 µM); solubility ([1]; oil or lipid, Neobee M5, 25° C.): 520 µg/mL (≈ 1100 µM); solubility ([1]; oil or lipid, Oleic acid, 25° C.): 40 µg/mL (≈ 84.4 µM); solubility ([1]; oil or lipid, Olive oil, 25° C.): 30 µg/mL (≈ 63.3 µM); solubility ([1]; oil or lipid, Propylene glycol Laurate, 25° C.): 680 µg/mL (≈ 1430 µM); solubility ([1]; oil or lipid, Safflower oil, 25° C.): < 0.001 µg/mL; solubility ([1]; oil or lipid, Soybean oil, 25° C.): < 0.001 µg/mL; solubility ([1]; organic solvent or mixture, Benzyl Alcohol, 25° C.): 21000 µg/mL (≈ 44400 µM); solubility ([1]; organic solvent or mixture, Benzyl Benzoate, 25° C.): 3410 µg/mL (≈ 7200 µM); solubility ([1]; organic solvent or mixture, Ethanol, 25° C.): 1890 µg/mL (≈ 3990 µM); solubility ([1]; organic solvent or mixture, PEG 300, 25° C.): 14900 µg/mL (≈ 31400 µM); solubility ([1]; organic solvent or mixture, PEG 300/Alcohol (50:50), 25° C.): 8750 µg/mL (≈ 18500 µM); solubility ([1]; organic solvent or mixture, PEG 400, 25° C.): 26300 µg/mL (≈ 55500 µM); solubility ([1]; organic solvent or mixture, PEG 400/Benzyl Alcohol (80:20), 25° C.): 14600 µg/mL (≈ 30800 µM); solubility ([1]; organic solvent or mixture, Triacetin, 25° C.): 2700 µg/mL (≈ 5700 µM); Solubility in partially aqueous solvents ([1]; partially aqueous solvents of pharmaceutically acceptable hydrophilic and lipophilic solvents): limited solubility; solubility ([1]; plasma or biological fluid, Human Serum Albumin, 25° C.): 16 µg/mL (≈ 33.8 µM); solubility ([1]; propylene glycol (printed: Propylyne glycol), organic solvent or mixture, Propylyne glycol, 25° C.): 600 µg/mL (≈ 1270 µM); solubility ([1]; simulated gastric fluid, SGF without enzyme, 25° C.): < 0.001 µg/mL; Solubility in aqueous solutions ([1]; throughout the physiological pH range (1.2 to 7.5)): insoluble; Behaviour upon addition of water [2]: precipitated

From patent US20070178147A1, “Liposomal compositions” (priority 2005, published 2007)
